# Experimental data taken from US7037656B2, “Methods and compositions for identifying ligands for nuclear receptors” (priority 2000, dated 2006).
# Columns and labels:
# Test in all cases: Yeast 6x EcRE-lacZ β-galactosidase transactivation assay
# [1] = target: T1, Cf ΔA/B EcR + RXR γ + GRIP1 (Choristoneura fumiferana, UniProt O77240); assay type: cell-based, Choristoneura fumiferana; mouse; conditions: RH 5992 10 μM, 4 hours, DMSO control 0.200
# T1 construct: human ubiquitin (76 aa) (N, cleaved yes); expressed in transfected cells; host or cells: yeast (Saccharomyces cerevisiae)
# Procedure: (§1) The human RXR α (Genbank accession number X52773), mouse RXR β (Genbank accession number X66224) or mouse RXR γ (Genebank accession number X66225) subtypes were expressed in yeast-E. coli multicopy 2μ expression plasmids under regulation of CUP1 promoter with the LEU2 selective marker (1).
# (§2) Briefly, yeast cells are cultured in 5 mL of YPD liquid medium overnight at 30° C. The cell culture was diluted 1:20 in YPD media and further grown until cell density reached an O.D of 0.6. at OD600. The cells were pelleted by centrifugation and washed with 10 mL of TE+0.1M lithium acetate. Cells are then resuspended in 10 mL TE+0.1M lithium acetate and incubated at 30° C. for 1 hour. Cells are collected and resuspended in 0.5 mL of TE+ 0.1M lithium acetate. Aliquots of cells (50 μL), were incubated for 15 minutes at 30° C. with 1–2 μg plasmid DNA in the presence of 5 μg of denatured salmon sperm DNA as DNA carrier. In the case of co-transformation, the indicated plasmids were added simultaneously. 50% polyethyleneglycol of molecular weight 4000, diluted in TE, was added to a final concentration of 35%. DMSO was added to the transformation solution simultaneously to a final concentration 3%. The samples were mixed well by vortexing and incubated for an additional 30 minutes at 30° C. The cell mixture is then heated for 15 minutes at 42° C. […]
# [2] = tested on: Cf ΔA/B EcR + RXR β + GRIP1; assay type: cell-based, Choristoneura fumiferana; mouse; conditions: RH 5992 10 μM, 4 hours, DMSO control 0.205
# Procedure: as §1, §2
# [3] = target: T2, Aa ΔA/B EcR + Cf ΔA/B USP + GRIP1 (Aedes aegypti, UniProt P49880); assay type: cell-based, Aedes aegypti; Choristoneura fumiferana; conditions: RH 5992 10 μM, 4 hours, DMSO control 0.250
# T2 construct: ubiquitin (human, 76 aa) (N, cleaved yes); expressed in transfected cells
# Procedure: as §2, with “simultaneously.” for “simultaneously. 50% polyethyleneglycol of molecular weight 4000, diluted in TE, was added to a final concentration of 35%. DMSO was added to the transformation solution simultaneously to a final concentration 3%. The samples were mixed well by vortexing and incubated for an additional 30 minutes at 30° C. The cell mixture is then heated for 15 minutes at 42° C.”
# Using the transformation method described above, yeast were co-transformed with a reporter gene as shown in FIG. 2 and the expression vector encoding the full-length Aedes aegypti ecdysone receptor, Aa EcR (FIG. 7A) in the presence or absence of the Aa EcR heterodimer partner, Aa USP (a or b form, FIGS. 8A and 8B respectively). […] As the N-terminal portion of the AaEcR receptor is reported to play a role in ligand independent transactivation, an expression vector containing an N-terminal deletion in the Aa EcR was constructed (see FIG. 7B) and assessed in the β-galactosidase assays described above. […]
# T1 sequence (O77240 entry or part of it, stated change not applied): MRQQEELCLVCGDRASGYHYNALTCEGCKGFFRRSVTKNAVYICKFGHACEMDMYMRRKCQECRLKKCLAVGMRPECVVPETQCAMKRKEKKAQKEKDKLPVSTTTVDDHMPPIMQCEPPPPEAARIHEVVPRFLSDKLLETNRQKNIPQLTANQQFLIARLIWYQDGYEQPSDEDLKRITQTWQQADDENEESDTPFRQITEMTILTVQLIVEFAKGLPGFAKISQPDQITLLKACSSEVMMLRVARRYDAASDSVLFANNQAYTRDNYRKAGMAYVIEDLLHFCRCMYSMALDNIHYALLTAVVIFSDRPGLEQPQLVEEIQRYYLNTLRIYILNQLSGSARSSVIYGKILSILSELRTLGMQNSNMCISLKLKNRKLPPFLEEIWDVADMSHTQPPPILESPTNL
# T1 sequence (P28705 whole entry partner): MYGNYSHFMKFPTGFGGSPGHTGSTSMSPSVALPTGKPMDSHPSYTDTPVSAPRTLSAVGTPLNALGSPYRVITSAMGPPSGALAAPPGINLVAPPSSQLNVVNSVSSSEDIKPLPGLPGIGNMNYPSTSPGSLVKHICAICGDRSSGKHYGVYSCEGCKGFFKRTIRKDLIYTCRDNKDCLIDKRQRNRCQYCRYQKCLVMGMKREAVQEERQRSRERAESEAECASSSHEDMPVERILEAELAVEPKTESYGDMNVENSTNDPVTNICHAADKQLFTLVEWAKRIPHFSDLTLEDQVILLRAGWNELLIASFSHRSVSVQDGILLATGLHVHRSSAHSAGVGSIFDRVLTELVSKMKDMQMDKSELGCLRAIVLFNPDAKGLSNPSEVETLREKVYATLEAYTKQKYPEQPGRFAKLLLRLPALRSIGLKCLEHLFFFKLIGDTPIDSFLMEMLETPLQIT
# T2 sequence (P49880 with tags, fused parts or gaps): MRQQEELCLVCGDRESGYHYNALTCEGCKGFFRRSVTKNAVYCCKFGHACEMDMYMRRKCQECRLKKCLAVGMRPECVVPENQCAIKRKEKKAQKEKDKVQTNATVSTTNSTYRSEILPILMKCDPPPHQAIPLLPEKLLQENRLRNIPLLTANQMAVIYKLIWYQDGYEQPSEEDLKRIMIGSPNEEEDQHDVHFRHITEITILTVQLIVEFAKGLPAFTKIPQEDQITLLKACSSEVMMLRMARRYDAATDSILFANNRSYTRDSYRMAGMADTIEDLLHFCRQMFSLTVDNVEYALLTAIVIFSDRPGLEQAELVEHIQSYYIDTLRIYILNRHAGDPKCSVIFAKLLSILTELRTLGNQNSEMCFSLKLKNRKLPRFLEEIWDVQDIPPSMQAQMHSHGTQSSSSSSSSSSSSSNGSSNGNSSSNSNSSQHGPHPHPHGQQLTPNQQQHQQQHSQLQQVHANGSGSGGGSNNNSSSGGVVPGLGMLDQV
# T2 sequence (O76202 with tags, fused parts or gaps partner): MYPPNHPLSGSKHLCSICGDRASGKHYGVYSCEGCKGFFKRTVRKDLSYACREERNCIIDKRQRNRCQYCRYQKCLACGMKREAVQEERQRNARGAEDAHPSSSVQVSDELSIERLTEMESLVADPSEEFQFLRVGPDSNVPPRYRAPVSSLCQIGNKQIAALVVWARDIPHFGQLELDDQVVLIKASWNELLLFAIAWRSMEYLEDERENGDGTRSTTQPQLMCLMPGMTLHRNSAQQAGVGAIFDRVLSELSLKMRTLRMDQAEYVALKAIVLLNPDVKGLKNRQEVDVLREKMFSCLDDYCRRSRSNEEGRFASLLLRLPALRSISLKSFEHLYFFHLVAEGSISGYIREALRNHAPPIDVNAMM
structure (smiles),measurement,setting,value
"CCc1ccc(C(=O)NN(C(=O)c2cc(C)cc(C)c2)C(C)(C)C)cc1 [RH 5992, tebufenozide]",β-galactosidase activity,[1],1.030
same,β-galactosidase activity,[2],0.456
same,β-galactosidase activity,[3],3.000
